# Reference: PubChem BioAssay AID602264 (The Scripps Research Institute Molecular Screening Center, 2012)
# “And” between values parts separate entries of the source, which are not always exact repeats. Equal values may be shown once. The source made the active and inactive calls. How the calls were made is not given here.
# Biological target: Mu-type opioid receptor (Homo sapiens) + Delta-type opioid receptor (Homo sapiens) (UniProt P35372+P41143)
# Assay: agonists of MOR-DOR heterodimerization, dose response, counter-screen for MC4R biased agonist project, cell-based, luminescence (AID 602264)
# Conditions: cell-based OPRM1-OPRD1 heterodimerization
# Chain of Mu-type opioid receptor (Homo sapiens) + Delta-type opioid receptor (Homo sapiens) (P35372 whole entry, looked up): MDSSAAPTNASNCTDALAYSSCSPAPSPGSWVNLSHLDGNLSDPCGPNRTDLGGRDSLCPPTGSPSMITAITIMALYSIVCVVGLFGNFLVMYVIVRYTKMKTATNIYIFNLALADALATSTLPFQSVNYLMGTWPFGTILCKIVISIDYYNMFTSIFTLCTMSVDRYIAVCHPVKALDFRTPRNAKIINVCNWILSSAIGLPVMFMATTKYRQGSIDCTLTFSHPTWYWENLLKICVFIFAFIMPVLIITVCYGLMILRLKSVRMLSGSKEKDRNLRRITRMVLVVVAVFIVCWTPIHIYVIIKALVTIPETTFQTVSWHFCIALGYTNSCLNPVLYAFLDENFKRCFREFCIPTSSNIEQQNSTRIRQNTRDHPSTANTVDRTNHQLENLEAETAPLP
# Chain of Mu-type opioid receptor (Homo sapiens) + Delta-type opioid receptor (Homo sapiens) (P41143 whole entry, looked up): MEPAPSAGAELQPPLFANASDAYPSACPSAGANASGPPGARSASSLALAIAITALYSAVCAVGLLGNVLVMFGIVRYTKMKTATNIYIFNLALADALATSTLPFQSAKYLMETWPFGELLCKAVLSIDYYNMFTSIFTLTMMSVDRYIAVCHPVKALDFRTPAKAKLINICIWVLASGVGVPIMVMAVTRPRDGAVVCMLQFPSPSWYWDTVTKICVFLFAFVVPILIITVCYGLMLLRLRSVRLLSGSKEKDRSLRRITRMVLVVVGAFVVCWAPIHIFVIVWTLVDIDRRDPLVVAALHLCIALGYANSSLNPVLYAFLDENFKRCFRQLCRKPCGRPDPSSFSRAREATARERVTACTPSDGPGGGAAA
row,Structure (SMILES),EC50
1,CCC(C)c1ccc(NC(=S)NC2CCN(Cc3ccccc3)CC2)cc1 (centres undefined),> 64.6 µM (inactive)
2,CC(=O)Nc1cc(-c2ccc(C(=O)NC3CC3)cc2)cn2c(-c3cccc(C(F)(F)F)c3)cnc12,> 64.6 µM (inactive)
3,COc1cccc(-c2cnc3c(NC=O)cc(-c4ccoc4)cn23)c1,> 64.6 µM (inactive)
4,O=C(NC(c1ccc(Cl)cc1)c1cccnc1)C1CCN(CCOc2ccc(Cl)cc2Cl)CC1 (centres undefined),> 92.4 µM (inactive)
5,CN(C)c1ccccc1-c1cc(NC=O)c2ncc(-c3cccc(C(F)(F)F)c3)n2c1,> 64.6 µM (inactive)
6,CCCOc1ccc(C(=O)C(CCC(CNCC)C(=O)c2ccc(OCCC)cc2)CNCC)cc1 (centres undefined),> 92.5 µM (inactive)
7,NC(Cc1ccc(Cl)cc1)c1csc(NC(=O)Nc2ccccc2)n1 (centres undefined),> 64.6 µM (inactive)
8,CCOC(=O)Cc1csc(NC(=O)c2sc3nc4cc(C)ccc4cc3c2N)n1,> 92.4 µM (inactive)
9,COc1ccc(-c2cc(NC(C)=O)c3ncc(-c4ccccc4)n3c2)c(OC)c1,> 92.4 µM (inactive)
10,CCC(C)(C)c1ccc(OCCCC[n+]2cccc(C)c2C)c(C(C)(C)CC)c1,> 64.6 µM (inactive)
11,O=C(CSc1ccccc1)Nc1nnc(/C=C/c2ccccc2)s1,> 92.5 µM (inactive)
12,CC(C)c1ccc(NS(=O)(=O)c2ccc(-n3cccn3)cc2)cc1,> 92.5 µM (inactive)
13,COc1cccc(/C=C2/SC(=S)N(CCCC(=O)Nc3ccc(O)cc3)C2=O)c1,> 92.5 µM (inactive)
14,O=C(Nc1cc(-c2nc3ccccc3s2)ccc1Cl)c1ccc2c(c1)OCO2,> 92.4 µM (inactive)
15,CC(=O)Nc1cc(-c2cccc(C(=O)NCCN(C)C)c2)cn2c(-c3cccc(C(F)(F)F)c3)cnc12,> 92.5 µM (inactive)
16,COc1cccc(-c2cnc3c(NC=O)cc(-c4ccc(O)c(OC)c4)cn23)c1,> 64.6 µM (inactive)
17,COc1ccc(-c2cc(NC(C)=O)c3ncc(-c4cccc(C(F)(F)F)c4)n3c2)c(OC)c1,> 92.5 µM (inactive)
18,CCN1C(=O)/C(=C2/Sc3ccc(OC)cc3N2C)SC1=Nc1cccc(O)c1,> 92.5 µM (inactive)
19,CC(=O)Nc1cc(-c2ccc(F)cc2)cn2c(-c3ccc(F)c(Cl)c3)cnc12,> 64.6 µM (inactive)
20,CCc1ccc(CCC(=O)Nc2ncc(Cc3ccccc3Cl)s2)o1,> 92.5 µM (inactive)
21,FC(F)(F)c1cccnc1Oc1ccc(C2=NCCS2)cc1,> 92.4 µM (inactive)
22,N#C/C(=C\c1cn(CCOc2ccccc2F)c2ccccc12)C(=O)NCc1cccs1,> 92.4 µM (inactive)
23,CC(=O)Nc1cc(-c2cccc(F)c2)cn2c(-c3ccc(F)c(Cl)c3)cnc12,> 64.6 µM (inactive)

row,Structure (SMILES),EC50
1,Nc1ccc(C2(c3ccc(N)cc3)c3ccccc3-c3ccccc32)cc1,> 92.5 µM (inactive)
2,CCOc1cc(CNCCc2c[nH]c3ccccc23)cc(Cl)c1OCC,> 92.5 µM (inactive)
3,CC(=O)Nc1cc(-c2ccccc2)cn2c(-c3ccc(F)c(Cl)c3)cnc12,> 92.5 µM (inactive)
4,Cc1cccnc1C(c1ccc(F)cc1)N(C)C(=O)C1CCN(CCOc2ccc(Cl)cc2Cl)CC1 (centres undefined),> 92.5 µM (inactive)
5,COc1ccc(-c2sc3ccc(N4CCOCC4)cc3c2C#CC2(O)CCCCC2)cc1,> 64.6 µM (inactive)
6,O=CNc1cc(-c2ccsc2)cn2c(-c3ccccc3)cnc12,> 92.5 µM (inactive)
7,CCOc1ccc(NC(=O)CSc2nc(-c3cccs3)cc(C(F)(F)F)n2)c([N+](=O)[O-])c1,> 64.6 µM (inactive)
8,Cc1cc(C)cc(OCC(O)CN2CCC(CN3C(=O)c4cccc5cccc(c45)C3=O)CC2)c1 (centres undefined),> 64.6 µM (inactive)
9,COc1ccc(-c2sc3ccccc3c2-c2ccc(OCCN(C)C)cc2)cc1,> 92.5 µM (inactive)
10,Cc1ccc2sc(N(CCCN(C)C)C(=O)c3ccc(Br)s3)nc2c1C,> 64.6 µM (inactive)
11,Clc1ccc(Cn2ncc3c(N4CCN(c5ccccc5)CC4)ncnc32)cc1,> 92.3 µM (inactive)
12,Cc1ccccc1-c1nc(-c2ccc(NC(=O)c3ccc4c(c3)OCO4)cc2)no1,> 92.4 µM (inactive)
13,CCSc1nnc(NC(=O)c2csc3c2CCCC3)s1,> 92.5 µM (inactive)
14,OC(CNCCc1ccc(C(F)(F)F)cc1)COC(c1ccccc1)c1ccccc1 (centres undefined),> 64.6 µM (inactive)
15,COc1cc(C(=O)Nc2nnc(-c3sccc3C)s2)cc(OC)c1OC,> 92.5 µM (inactive)
16,CC(=O)Nc1cc(-c2ccccc2F)cn2c(-c3cccc(C(F)(F)F)c3)cnc12,> 92.5 µM (inactive)
17,COc1cc(-c2cc(NC=O)c3ncc(-c4cccc(C(F)(F)F)c4)n3c2)cc(OC)c1OC,> 64.6 µM (inactive)
18,Cc1nnnn1/C(=C\c1ccccc1)C(=O)OCC(=O)Nc1ccc(Cl)cc1F,> 92.5 µM (inactive)
19,COc1cccc(CC2(CO)CCCN(Cc3[nH]c4ccc(C)cc4c3C)C2)c1 (centres undefined),> 92.5 µM (inactive)
20,COc1ccc(-c2cc(NC(C)=O)c3ncc(-c4ccc(OC)c(OC)c4)n3c2)cc1OC,> 64.6 µM (inactive)
21,O=C1OC(c2ccccc2)(c2ccc(O)cc2)c2ccccc21 (centres undefined),> 92.5 µM (inactive)
22,Clc1ccc(C[n+]2c(-c3ccccc3)cc(-c3ccccc3)cc2-c2ccccc2)cc1,> 92.5 µM (inactive)
23,C/C(=N\NC(=O)COc1cccc2ccccc12)c1cccs1,> 64.6 µM (inactive)

row,Structure (SMILES),EC50
1,COc1ccc(-c2oc3ccc(-c4ccc5c(c4)OCO5)cc3c2C#CC2(O)CCCCC2)cc1,> 64.6 µM (inactive)
2,COc1cccc(-c2cnc3c(NC=O)cc(-c4cccc(C(=O)N(C)C)c4)cn23)c1,> 64.6 µM (inactive)
3,N#C/C(=C\c1cn(CCOc2ccccc2)c2ccccc12)C(=O)NCc1ccco1,> 92.5 µM (inactive)
4,COc1ccc2[nH]c3c(C)c4ccncc4c(C)c3c2c1,> 64.7 µM (inactive)
5,Cc1cc(C)c2nc(Nc3nc(-c4ccccc4)cc(=O)[nH]3)nc(C)c2c1,> 92.5 µM (inactive)
6,CC(=O)Nc1ccc(-c2csc(NC(=O)Nc3ccccc3)n2)cc1,> 64.6 µM (inactive)
7,COc1ccc(CNC(=O)Nc2nc(C(N)Cc3ccc(C(F)(F)F)cc3)cs2)cc1 (centres undefined),> 64.6 µM (inactive)
8,CC(=O)Nc1cc(-c2cccc(NS(C)(=O)=O)c2)cn2c(-c3ccccc3)cnc12,> 92.5 µM (inactive)
9,N#Cc1sc2nc(-c3cccs3)cc(-c3ccc(F)cc3)c2c1N,> 92.5 µM (inactive)
10,Cc1c(CN2CCC(CO)(CCOc3ccccc3)CC2)[nH]c2c(Cl)cccc12,> 92.5 µM (inactive)
11,Cc1ccc(O)c(C(=O)/C=C/c2ccc3c(c2)OCCO3)c1,> 92.5 µM (inactive)
12,CC(=O)Nc1cc(-c2ccc(CO)cc2)cn2c(-c3cccc(C(F)(F)F)c3)cnc12,> 64.6 µM (inactive)
13,NC(Cc1ccc(C(F)(F)F)cc1)c1csc(NC(=O)Nc2ccccc2)n1 (centres undefined),> 92.5 µM (inactive)
14,Cc1ccc(NC(=O)c2ccccc2OCC(=O)c2ccc(F)cc2)cc1,> 92.5 µM (inactive)
15,Cc1ccc(OCC(=O)NC(=S)Nc2cccc(NC(=O)c3ccccc3)c2)cc1,> 64.6 µM (inactive)
16,COc1cc(O)c(CC=C(C)C)c(O)c1C(=O)CCc1ccc(O)cc1,> 64.6 µM (inactive)
17,NC(Cc1ccc(Cl)cc1)c1csc(Nc2ccc(-c3ccccc3)nn2)n1 (centres undefined),> 92.4 µM (inactive)
18,COc1ccc(-c2cnc3c(NC(C)=O)cc(-c4ccccc4OC)cn23)cc1OC,> 64.6 µM (inactive)
19,COc1ccc(NC(=O)Nc2nc(C(N)Cc3ccc(C(F)(F)F)cc3)cs2)cc1 (centres undefined),> 64.6 µM (inactive)
20,CCOc1ccc(Cn2c3ccc(OC)cc3c3nc4ccccc4nc32)cc1,> 64.6 µM (inactive)
21,CCN1CCN(Cc2ccc(NC(=O)c3ccc(C)c(NC(=O)C(=O)c4c[nH]c5ccccc45)c3)cc2C(F)(F)F)CC1,> 10.3 µM (inactive) and > 92.5 µM (inactive)
22,Clc1ccc(/C=N/NC2=Nc3cccc4cccc2c34)cc1,> 92.4 µM (inactive)
23,CC(=O)Nc1cc(-c2cccnc2)cn2c(-c3cccc(C(F)(F)F)c3)cnc12,> 92.5 µM (inactive)

row,Structure (SMILES),EC50
1,CCCCCCCCCCCCCCCC[N+](C)(C)Cc1ccc(F)cc1,> 92.5 µM (inactive)
2,CCCCNc1c(-c2cccc(-c3cc(C(C)=O)cs3)c2)nc2ccc(C)cn12,> 64.6 µM (inactive)
3,O=C(N/N=C/c1ccc(OCc2ccccc2)cc1)c1cccs1,> 92.5 µM (inactive)
4,O=C(Nc1cccc(NC(=S)NC(=O)c2cccs2)c1)c1ccccc1,> 92.5 µM (inactive)
5,COc1ccc(C(NC(=O)C2CCN(CCOc3ccc(Cl)cc3Cl)CC2)c2ccccc2C)cn1 (centres undefined),> 64.6 µM (inactive)
6,CCN1CCN(Cc2ccc(NC(=O)c3cc(NC(=O)c4cncc(-c5ccc(C#N)cc5)c4)cc(OC)c3)cc2C(F)(F)F)CC1,> 64.6 µM (inactive)
7,Cc1ccc(C(=O)Nc2nc(C(N)Cc3ccc(C(F)(F)F)cc3)cs2)cc1 (centres undefined),> 64.6 µM (inactive)
8,CCOc1cc(NC(=O)c2cccs2)c(OCC)cc1NC(=O)c1ccco1,> 92.3 µM (inactive)
9,CCc1ccc(C2CC(c3ccc(F)cc3)Nc3nc(N)nn32)cc1 (centres undefined),> 92.5 µM (inactive)
10,COc1ccc(NC(=O)Nc2nnc(-c3ccccc3SCc3ccccc3)s2)cc1,> 92.5 µM (inactive)
11,Cc1ccc(NC(=S)NC(=O)c2ccc(-c3ccc(Cl)cc3)o2)c(O)c1,> 64.6 µM (inactive)
12,COc1ccccc1-c1cc(NC(C)=O)c2ncc(-c3cccc(C(F)(F)F)c3)n2c1,> 92.5 µM (inactive)
13,O=C(Nc1nc2ccc(SC(F)F)cc2s1)c1ccc(NS(=O)(=O)c2ccc(F)c(F)c2)cc1,> 64.6 µM (inactive)
14,O=C(N/N=C/c1c[nH]c2ccccc12)C1CC1(c1ccccc1)c1ccccc1 (centres undefined),> 92.5 µM (inactive)
15,Cc1cc(C)c2sc(N(CCCN(C)C)C(=O)c3ccc(Br)s3)nc2c1,> 92.5 µM (inactive)
16,COc1ccc(/C=N/NC(=O)c2ccc(COc3ccccc3Cl)o2)c(OC)c1C,> 64.6 µM (inactive)
17,COc1ccccc1-c1cc(NC(C)=O)c2ncc(-c3cccc(C(C)=O)c3)n2c1,> 64.6 µM (inactive)
18,COc1cc(NC(=O)COc2ccccc2[N+](=O)[O-])ccc1NC(=O)c1cccs1,> 92.5 µM (inactive)
19,O=C1C2=C(NC(=S)NC2c2ccc(Cl)cc2)NC(c2ccc(Cl)cc2)N1c1ccc(Cl)cc1 (centres undefined),inactive
20,COc1ccc2c(c1)CCc1c(C(=O)Nc3ccn(Cc4ccc(C)cc4)n3)noc1-2,> 92.4 µM (inactive)
